# Counter-ions that a name gives are not always drawn.
# Tested on: clot lysis (fibrinolysis) in human citrated plasma, tPA-induced
# Assay: Plasma-based clot lysis assay (5%)
# Type: biochemical
# Settings: diluted human citrated plasma (platelet-poor, 5%), fibrinogen 3 μM, CaCl2 10 mM, tPA 0.2 nM, 37° C., OD 405 nm
# Protocol: B-2. Plasma-based Clot Lysis Assay (5%)
# The clot-lysis test system configures the kinetics of clot formation and degradation in vitro and allows quantifying modulation of the process by selected test compounds.
# The test compounds were dissolved in 1% acetic acid and further complemented with an equal volume of DMSO. The resulting stock solutions were serially diluted in 0.5% acetic acid/50% DMSO. 1 μL aliquots of these solutions were placed into 384 well microplates (Greiner, black, transparent bottom), followed by 30 μL of diluted human citrated plasma (platelet-poor, final concentration: 5%; supplemented with fibrinogen, final concentration: 3 μM; dilution buffer: 20 mM HEPES, 150 mM NaCl, 0.01% Brij (pH 7)). The reactions were started by addition of […] of CaCl2 (final concentration: 10 mM), and tPA (tissue plasminogen activator, final concentration: 0.2 nM) in dilution buffer, followed by an additional volume of 20 μL dilution buffer for improved mixing. The reactions were incubated at 37° C. Clot formation and degradation was monitored spectrophotometrically by kinetic optical density measurements at 405 nm. IC50 values were determined by comparing the resulting time courses with the time course of a blank control reaction.
row,Compound,IC50
1,"Cc1nnc2nn3c(C4CCNCC4)cc(=O)[nH]c3c2c1C [Example 17, 3,4-Dimethyl-8-(piperidin-4-yl)pyrimido[1′,2′:1,5]pyrazolo[3,4-c]pyridazin-6(5H)-one hydrochloride]",22 nM
2,"CC1CC(c2cc(=O)[nH]c3c4c(Cl)cccc4nn23)CCN1 (single isomer, unassigned; (+)) [Example 101, (+)-Cis-10-Chloro-4-(2-methylpiperidin-4-yl)pyrimido[1,2-b]indazol-2(1H)-one hydrochloride [Enantiomerically Pure Cis-Isomer]]",35 nM
3,"O=c1cc(C2CCNCC2)n2nc3cc(C(F)(F)F)cc(Cl)c3c2[nH]1 [Example 41, 10-Chloro-4-(piperidin-4-yl)-8-(trifluoromethyl)pyrimido[1,2-b]indazol-2(1H)-one hydrochloride]",23 nM
4,"O=c1cc(C2CCNCC2)n2nc3cccc(C(F)(F)F)c3c2[nH]1 [Example 12, 4-(Piperidin-4-yl)-10-(trifluoromethyl)pyrimido[1,2-b]indazol-2(1H)-one hydrochloride]",32 nM
5,"O=c1cc(C2CCNCC2)n2nc3ccc(F)cc3c2[nH]1 [Example 7, 9-Fluoro-4-(piperidin-4-yl)pyrimido[1,2-b]indazol-2(1H)-one hydrochloride]",95 nM
6,"Cc1ccccc1-c1cccc2nn3c(C4CCNCC4)cc(=O)[nH]c3c12 [Example 85, 10-(2-Methylphenyl)-4-(piperidin-4-yl)pyrimido[1,2-b]indazol-2(1H)-one hydrochloride]",18 nM
7,"O=c1cc(C2CCNCC2)n2nc3ccncc3c2[nH]1 [Example 49, 4-(Piperidin-4-yl)pyrido[4′,3′:3,4]pyrazolo[1,5-a]pyrimidin-2(1H)-one]",36 nM
8,"O=c1cc(C2CCNCC2)n2nc3cccc(O)c3c2[nH]1 [Example 105, 10-hydroxy-4-(piperidin-4-yl)pyrimido[1,2-b]indazol-2(1H)-one hydrobromide]",74 nM
9,"O=c1cc(C2CCNCC2)n2nc3ccccc3c2[nH]1 [Example 1, 4-(Piperidin-4-yl)pyrimido[1,2-b]indazol-2(1H)-one hydrochloride]",51 nM
10,"O=c1cc(C2CCNCC2)n2nc3ccc(I)cc3c2[nH]1 [Example 48, 9-Iodo-4-(piperidin-4-yl)pyrimido[1,2-b]indazol-2(1H)-one hydrochloride]",36 nM
11,"O=c1cc(C2CCNCC2)n2nc3cc(C(F)(F)F)cc([N+](=O)[O-])c3c2[nH]1 [Example 31, 10-Nitro-4-(piperidin-4-yl)-8-(trifluoromethyl)pyrimido[1,2-b]indazol-2(1H)-one hydrochloride]",97 nM
12,"Cc1ccc2nn3c(C4CCNCC4)cc(=O)[nH]c3c2c1 [Example 15, 9-Methyl-4-(piperidin-4-yl)pyrimido[1,2-b]indazol-2(1H)-one hydrochloride]",48 nM
13,"O=c1cc(C2CCNCC2)n2nc3cc(Cl)ccc3c2[nH]1 [Example 39, 8-Chloro-4-(piperidin-4-yl)pyrimido[1,2-b]indazol-2(1H)-one hydrochloride]",24 nM
14,"O=c1cc(C2CCNCC2)n2nc3cccc(-c4cnc[nH]4)c3c2[nH]1 [Example 103, 10-(1H-imidazol-5-yl)-4-(piperidin-4-yl)pyrimido[1,2-b]indazol-2(1H)-one hydrochloride]",110 nM
15,"O=c1cc(C2CCNCC2)n2nc3cccc(-c4ccc[nH]4)c3c2[nH]1 [Example 104, 4-(piperidin-4-yl)-10-(1H-pyrrol-2-yl)pyrimido[1,2-b]indazol-2(1H)-one hydrochloride]",35 nM

# Same assay, conditions: diluted human citrated plasma (platelet-poor, 5%), fibrinogen 3 μM, CaCl2 10 mM, tPA 0.2 nM, 37° C., OD 405 nm; hydrochloride
row,Compound,IC50
1,"C[C@H]1C[C@H](c2cc(=O)[nH]c3c4c(Cl)cccc4nn23)CCN1 [Example 68, (−)-trans-10-Chloro-4-(2-methylpiperidin-4-yl)pyrimido[1,2-b]indazol-2(1H)-one hydrochloride]",25 nM

# Same assay, conditions: diluted human citrated plasma (platelet-poor, 5%), fibrinogen 3 μM, CaCl2 10 mM, tPA 0.2 nM, 37° C., OD 405 nm; trifluoroacetate
row,Compound,IC50
1,"N#Cc1cccc2nn3c(C4CCNCC4)cc(=O)[nH]c3c12 [Example 33, 2-Oxo-4-(piperidin-4-yl)-1,2-dihydropyrimido[1,2-b]indazole-10-carbonitrile trifluoroacetate]",21 nM
